The target of this experiment is GAA (human acid α-glucosidase; rhGAA) (Homo sapiens, UniProt P10253). It is filed as biochemical.

We go through one compound from paper doi:10.1101/212837v1 (biorxiv, 2017).

One may read the Ki as a measure of affinity in units of concentration, obtained from inhibition or displacement.

For the compound `OC[C@H]1OC(O)[C@H](O)[C@@H](O)[C@@H]1O` (mixture of isomers) [glucose], the Ki is 5.8 ± 0.6 mM.
